Results as given in patent publication US8420810B2, “Bicyclic heterocyclic compound” (Ono Pharmaceutical, Co., Ltd., priority 2007, dated 2013).

Legend:
human CRF receptor I [1] = molecular target: T1, human CRF receptor I (Homo sapiens, UniProt P34998); assay: Binding assay (125I-CRF, membrane fraction); details: 125I-CRF 0.25 nM, membrane fraction of CHO-K1 cells expressing human CRF receptor I, room temperature 2 hours
T1 construct: expressed in transfected cells; host or cells: CHO-K1
T1 sequence (P34998 24-415): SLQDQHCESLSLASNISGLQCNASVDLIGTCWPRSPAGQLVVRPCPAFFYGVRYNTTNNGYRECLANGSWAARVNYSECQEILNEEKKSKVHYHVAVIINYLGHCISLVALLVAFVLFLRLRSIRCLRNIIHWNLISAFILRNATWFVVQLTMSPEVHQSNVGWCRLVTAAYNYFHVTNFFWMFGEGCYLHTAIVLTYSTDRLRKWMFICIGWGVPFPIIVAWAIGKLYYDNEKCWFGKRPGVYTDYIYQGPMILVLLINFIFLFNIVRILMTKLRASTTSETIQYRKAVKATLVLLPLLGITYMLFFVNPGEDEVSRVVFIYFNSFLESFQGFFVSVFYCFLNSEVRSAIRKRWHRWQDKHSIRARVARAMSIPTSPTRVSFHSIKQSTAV
Method: The forced-expression cell strain of the human CRF receptor I (parent strain is CHO-K1 cell) was cultured until the cell was confluent and collected with a scraper. The collected cells were washed twice with PBS, and were suspended with an ice-colded binding assay buffer (Tris-HCl (50 mM, pH 7.0), EDTA (2 mM, pH 8.0), and MgCl2 (10 mM)). After fractured with a dounce-type homogenizer, the suspended cells were centrifuged at 10,000 g, and a membrane fraction was collected. The collected membrane fraction was resuspended with a little amount of the binding assay buffer, thereafter diluted with the binding assay buffer so as to have a concentration of 1 mg/mL. The obtained membrane fraction was used for a binding assay.
^125I-CRF was diluted with the binding assay buffer so as to have a concentration of 0.5 nM, whereby 50 μL of the diluted ^125I-CRF was added to a siliconized 1.5 mL tube. Next, evaluation compounds diluted at appropriate times, DMSO (for general binding), or 100 μM of CRF (for non-specific binding), was added to a […]. Finally, 50 μL of the membrane fraction was added thereto and the reaction was started (final concentration of ^125I-CRF was 0.25 nM). The tube was incubated at room temperature for 2 hours. After the reaction, the tube was centrifuged at 20,000 g in order to collect the membrane fraction. The supernatant was discarded, and the pellet was washed with an ice-colded PBS/0.01% TritonX-100. A membrane binding count was measured using a y counter. The specific binding count was obtained by subtracting the non-specific count from the measured count.

rats = assay: Rat learned helplessness test; type: in vivo; details: oral, once a day for 6 days and 1 hour before the shock training
Method: The learned helplessness test was carried out using a two-way shuttle box which is partitioned into two by a gate which can be opened and closed so that travel to right and left becomes possible. On the 1st day of the learned helplessness test, rats were put into the device under un-escapable condition by closing the gate, and a total of 90 times of an electric shock (0.5 mA) was applied to them through a floor grid for 10 seconds at 2 seconds' intervals (shock training). Rats of the control group were left as they are for the same period of time (for 18 minutes) without applying the electric shock. After 24 hours of the shock training, rats were put into the device under escapable condition by opening the gate to carry out an escape test. After 5 minutes of acclimatization, a light stimulus and a sound stimulus (conditioning stimuli) were applied simultaneously for 5 seconds, and subsequent electric shock (un-conditioning stimulus) was applied for 10 seconds. This was regarded as one trial. A case of continuously receiving the electric shock without escape was regarded as escape failure. A total of 40 trials were carried out by setting the interval between respective trials to 5 seconds, and frequency of the escape failure was recorded.
In this connection, the vehicle (20% solvent) and evaluation compound were repeatedly administered once a day for 6 days and further orally administered 1 hour before the shock training.

human CRF receptor I [2] = molecular target: T1, human CRF receptor I; assay: Receptor antagonistic activity (cyclic AMP assay); type: cell-based; details: accumulated cyclic AMP, human/rat CRF stimulation, cells expressing human CRF receptor I, 37° C. 15 minutes
Method: The forced expression cell strain of the human CRF receptor I was cultured at 37° C. under 5% carbon dioxide and 95% air by using a Ham's F-12 medium (F-12 nutrient mixture) containing 10% bovine fetal serum and 1% antibiotic substance-antifungal agent. On the previous day before the cyclic AMP was measured, the cells were inoculated into a 96-well plate in an amount of 1×10^4 cell/well. On the measurement day, the cells were washed twice with a Ham's F-12 medium, whereby a solution of Ham's F-12 medium/1 mM 3-isobutyl-1-methylxanthine (assay medium) (178 μL) was added to each well. After the incubation at 37° C. for 15 minutes, the solutions (2 μL) of evaluation compound in various concentrations were added thereto, or DMSO (2 μL) was added to a CRF group and a blank group. An assay medium (20 μL) containing 10 nM human/rat CRF was added to wells of an evaluation compound group and the CRF group. An assay medium (20 μL) containing 0.00001% acetic acid was added to the blank group. Each group was further incubated at 37° C. for 15 minutes. The supernatant was removed and ice-colded to stop the reaction. Note that the reactions of 2 wells were the same in all reactions. The measurement for accumulated cyclic AMP amount in cells was carried out by using a cyclic AMP Biotrak enzyme immunoassay system (manufactured by GE Healthcare). The accumulated cyclic AMP amounts were calculated by subtracting mean values of corresponding 2 wells in the blank group from that of 2 wells. The IC50 values were calculated with non-linear regression analysis by defining logarithm concentration of the evaluation compound as independent variable and an accumulated cyclic AMP amount as dependent variable.

SD rats = assay: Elevated plus maze test with swim-stressed rat; type: in vivo; details: orally 1 hour before the test
Method: 2 open arms with the same lengths (50×10 cm) and 2 close arms (a 30 cm wall was provided) with the same lengths (50×10 cm) were arranged in orthogonal manner at a height of 50 cm from the floor to provide an elevated crossroad maze system. In 70 cm above the both open arms, white light was provided, whereby illuminance was maintained at constant.
SD rats of 7 weeks of age (CHARLES RIVER LABORATORIES JAPAN) were forcedly made to swim for 120 seconds in a pool (40×30×38 cm) at 22° C. of water temperature and 25 cm of water depth. After 9 minutes of soaking stress loading, the rat was put on the center of the system. The activity for 5 minutes of the rat was analyzed with an automatic activity-tracking analysis system (EthoVision Version 3.0, Noldus Information Technology) to calculate the dwell time (second) on the open arm.
Note that no soaking stress was loaded on the control group. In addition, 20% Wellsolve (registered trademark) (5 mL/kg) was orally administered to the vehicle group and evaluation compounds in various concentrations were orally administrated to the evaluation compound administration group 1 hour before the test.

Light stability test = type: physicochemical; details: 2500 Lux (D65 lamp), 25° C., HPLC
Method: After weighing 5 mg of an evaluation compound, it was put into a test tube made of glass which was then sealed with a stop cock. Said test tube was stored at 25° C. for 11 days or 20 days under irradiation of 2500 Lux (a D65 lamp was used as the light source). The evaluation compound after 11 days or 20 days of irradiation was determined by an HPLC apparatus. Survival rate (%) of the evaluation compound was calculated by the following formula. Survival rate of evaluation compound (%)=amount of evaluation compound after 11 days or 20 days of irradiation (mg)/weighed value of evaluation compound (mg)×100 <HPLC Conditions> • Apparatus: A 1200 series (manufactured by Agilent Technologies, Inc.), • Column: YMC-Pack C4, A-802, 150×4.6 mm I.D., S-5 μm, 120 A (manufactured by YMC), • Mobile phase: A: water, B: acetonitrile, A/B: 35/65, • Column temperature: room temperature, • Flow rate: 1.0 mL/min.

SMILES | IC50 (human CRF receptor I [1]) | increase of the frequency of escape failure for the vehicle group (rats; 3 mg/kg) | IC50 (human CRF receptor I [2]) | mean dwell time on the open arm compared to that of the vehicle group (SD rats) | mean dwell time on the open arm compared to that of the vehicle group (SD rats; 10 mg/kg) | increase of the frequency of escape failure for the vehicle group (rats; 10 mg/kg) | residual ratio after 20 days (Light stability test)
CCCC(C)c1cc(C)n2nc(-c3ccc(SC)cc3Cl)n(C)c(=O)c12 (stereo not drawn) [Example 22, 2-[2-chloro-4-(methylthio)phenyl]-3,7-dimethyl-5-(1-methylbutyl)pyrrolo[2,1-f][1,2,4]triazin-4(3H)-one] | 2.1 nM | significantly inhibited | 1.9 nM |  |  |  | 
CCCC(C)c1cc(C)n2nc(-c3cnc(OC(F)F)cc3C)n(C)c(=O)c12 (stereo not drawn) [28(10), 2-[6-(difluoromethoxy)-4-methyl-3-pyridinyl]-3,7-dimethyl-5-(1-methylbutyl)pyrrolo[2,1-f][1,2,4]triazin-4(3H)-one] | 20.7 nM |  | 17.1 nM | favorably elongated |  |  | 
CCn1c(-c2ccc(SC)cc2C)nn2c(C)cc(C(C)C)c2c1=O [Example 23, 3-ethyl-5-isopropyl-7-methyl-2-[2-methyl-4-(methylthio)phenyl]pyrrolo[2,1-f][1,2,4]triazin-4(3H)-one] | 11 nM |  | 9.6 nM |  | favorably elongated |  | 
CCC(CC)c1cc(C)n2nc(-c3cnc(OC(F)F)cc3C)n(C)c(=O)c12 [Example 13, 2-[6-(difluoromethoxy)-4-methyl-3pyridinyl]-5-(1-ethylpropyl)-3,7-dimethylpyrrolo[2,1-f][1,2,4]triazin-4(3H)-one] | 5.3 nM | significantly inhibited | 3.2 nM |  |  |  | 
CCC(CC)c1cc(C)n2nc(-c3ccc(OC)cc3C)n(CC(N)=O)c(=O)c12 [8(38), 2-[5-(1-ethylpropyl)-2-(4-methoxy-2-methylphenyl)-7-methyl-4-oxopyrrolo[2,1-f][1,2,4]triazin-3(4H)-yl]acetamide] | 23.5 nM |  | 34.8 nM |  |  |  | 
CCC(CC)c1cc(C)n2nc(-c3sc(N(C)C)nc3Cl)n(C)c(=O)c12 [8(48), 2-[4-chloro-2-(dimethylamino)-1,3-thiazol-5-yl]-5-(1-ethylpropyl)-3,7-dimethylpyrrolo[2,1-f][1,2,4]triazin-4(3H)-one] | 7.2 nM |  | 1.2 nM |  |  |  | 
CCC(CC)c1cc(C)n2nc(-c3c(C)nc(N(C)C)nc3C)n(C)c(=O)c12 [8(27), 2-[2-(dimethylamino)-4,6-dimethyl-5-pyrimidinyl]-5-(1-ethylpropyl)-3,7-dimethylpyrrolo[2,1-f][1,2,4]triazin-4(3H)-one] | 14.7 nM |  | 9.4 nM |  |  |  | 
CCN(CC)c1cc(C)n2nc(-c3ccc(OC)cc3Cl)n(C)c(=O)c12 [Example 65, 2-(2-chloro-4-methoxyphenyl)-5-(diethylamino)-3,7-dimethylpyrrolo[2,1-f][1,2,4]triazin-4(3H)-one] | 4.9 nM |  | 3.5 nM |  |  |  | 
CCc1cc(OC)ccc1-c1nn2c(C)cc(C(CC)CC)c2c(=O)n1C [8(25), 2-(2-ethyl-4-methoxyphenyl)-5-(1-ethylpropyl)-3,7-dimethylpyrrolo[2,1-f][1,2,4]triazin-4(3H)-one] | 3.6 nM |  | 1.7 nM | favorably elongated |  |  | 
CCC(CC)c1cc(C)n2nc(-c3ccc(OC)cc3C)n(CCO)c(=O)c12 [8(44), 5-(1-ethylpropyl)-3-(2-hydroxyethyl)-2-(4-methoxy-2-methylphenyl)-7-methylpyrrolo[2,1-f][1,2,4]triazin-4(3H)-one] | 7.8 nM |  | 4.2 nM |  |  |  | 
CCC(CC)c1cc(C)n2nc(-c3ncc(OC)cc3Cl)n(C)c(=O)c12 [Example 24(21), 2-(3-chloro-5-methoxy-2-pyridinyl)-5-(1-ethylpropyl)-3,7-dimethylpyrrolo[2,1-f][1,2,4]triazin-4(3H)-one] | 5.2 nM |  | 5.8 nM |  |  | significantly inhibited | 
CCC(CC)c1cc(C)n2nc(-c3ccc(OC(F)(F)F)cc3Cl)n(C)c(=O)c12 [Example 8, 2-[2-chloro-4-(trifluoromethoxy)phenyl]-5-(1-ethylpropyl)-3,7-dimethylpyrrolo[2,1-f][1,2,4]triazin-4(3H)-one] | 6.1 nM |  | 1.8 nM |  | favorably elongated | significantly inhibited | 99%
